Assay results reported in patent US20220030866A1, “CONJUGATES OF AUXIN ANALOGS” (The State of Israel, Ministry of Agriculture & Rural …, priority 2019, published 2022).

Assays:
Type in all cases: in vivo
[1] = system: cuttings from mature Eucalyptus grandis trees; assay: rooting of cuttings from mature Eucalyptus grandis trees; conditions: for rooting percentage of eucalyptus cuttings: Example 12: 6000 ppm IBA potassium salt and 50 μM conjugate dip 1 minute, leaves sprayed with 50 μM; for rooting compared with Compound 1a (4-CPA-ethanolamine), in words: 100 μM, submerging and/or spraying, with or without 6000 ppm IBA
Method: Eight-year-old Eucalyptus grandis plants were grown from seeds and placed in a net house in 20 liter pots containing peat and tuff (70:30, v/v), drip irrigated and fertilized with 3 liters of Shefer™ 737 liquid fertilizer (ICL Fertilizers, Israel) per cubic meter of water. Cuttings were collected from branches which grew 2-2.5 meters above the ground. Cuttings were 2-3 mm thick branches, 15 cm long, with 1-2 pairs of leaves. The leaf blades were cut in half to decrease transpiration. Cuttings were treated with 6000 ppm IBA (potassium indole-3-butyric acid) for 1 minute with or without 100 μM of each tested compound. The tested compounds were either applied to the base of the cutting, with or without IBA and/or sprayed on the foliage in the presence of 0.05% Triton™ X-100 surfactant. Cuttings were rooted in rooting tables heated to 25° C. under constant 90% humidity, in a controlled-climate greenhouse. The rooting medium contained crushed polystyrene foam: vermiculite no. 3: pit (3:2:1, v/v/v). Rooting was recorded after 30-60 days. Roots system architecture was analyzed by WinRHIZO™ system scanner and software.
Exemplary conjugates prepared as described in Example 1 were tested for their ability to promote adventitious root (AR) formation in cuttings from mature eucalyptus (Eucalyptus grandis) trees. In this model, AR formation is difficult to induce, with 5-15% root development in the presence of IBA potassium salt [Abu-Abied et al., Plant J 2012, 71:787-799], such that effective AR formation indicates a potent root formation activity.
Various concentrations and mode of applications were tested for each compound in the presence or absence of IBA (the “gold standard” rooting enhancer). A concentration of 100 μM of each conjugate was used for an initial screen of 37 conjugates, in which the compounds were applied to the base of the cutting by dipping (submerging the cutting base in a solution of the conjugate for one minute) or to the foliage by spraying. After 45 days, the cuttings were scored for the presence of callus or roots.
Conjugates prepared as described herein were evaluated in a Eucalyptus grandis rooting model, according to procedures such as described hereinabove. The bases of cuttings (a 12-15 cm long branch with the two upper leaves, whose blades were cut in half) were dipped in a solution containing 6000 ppm IBA potassium salt and 50 μM of conjugate for 1 minute, and the leaves were sprayed with 50 μM of the same conjugate (mixed with 0.5% Triton™ X-100 surfactant). The cuttings were imbedded in a heated (25° C.) rooting table containing a 1:2:3 ratio of peat:vermiculite:polystyrene, under 90% relative humidity.

mung bean cuttings = assay: rooting of mung bean cuttings (number of adventitious roots per cutting); conditions: for effect on AR formation in mung bean cuttings, in words: tested at 2, 10 or 50 μM
Method: Mung bean cuttings have been used for many years as a model for assessing the effect of plant hormones and synthetic chemicals on the rooting process. In the present study, this system was used to ascertain activity of conjugates in inducing adventitious root (AR) formation, and to evaluate the rate of conjugate hydrolysis that releases the free active auxin. […] The rooting activity in this system is determined by the number of adventitious roots per cutting.
The mung bean model was used to examine the activity of conjugates of three phenoxy acids, 4-CPA, MCPA, and 2-DP, on rooting. For comparison, plants were treated with (unconjugated) IBA or with 2-DP conjugated to glycine methyl ester (Gly-ME).

[2] = system: avocado rootstock cuttings; assay: rooting of avocado rootstock cuttings; conditions: vc51 rootstock, IBA with compound; for rooting success rate of green avocado branches, in words: compared with IBA alone
Excerpt: Avocado rootstock is extremely difficult to root. Currently, the common technique for propagating clones of avocado rootstock is to graft the desired rootstock on a seedling, and transfer to the dark to generate an etiolated branch. This branch can be rooted and grafted with the desired variety while still grafted on the seed [Frolich & Platt, California Avocado Society 1971-72 Yearbook 1972, 55:97-109]. However, the preparation of such twice-grafted seedlings is time-consuming and expensive.
The ability of exemplary conjugates to promote rooting in green avocado cuttings (in the presence of IBA) was therefore examined. In particular, Compounds 2h (MCPA-methanol), 4b (NAA-β-alanine methyl ester), 3g (2-DP-methyl-4-aminobenzoate), 3f (2-DP-p-toluidine), 1l (4-CPA-morpholine) and is (4-CPA-D-Trp) were tested.
Exemplary conjugates were also tested for rooting the hard-to-root species of avocado (VC801 rootstock) and argan, according to procedures described hereinabove.

Arabidopsis seedlings = assay: root elongation inhibition in Arabidopsis seedlings; conditions: 50 nM, after 5 days
Method: Adventitious roots (ARs) were induced in intact plants, using previously described procedures [Gutierrez et al., Plant Cell 2009, 21:3119-3132; Abu-Abied et al., Plant J 2012, 71:787-799; Rasmussen et al., Plant Physiol 2012, 158:1976-1987]. Briefly, seeds were germinated on MS/0.8% agar plates supplemented with 3% sucrose. The plates were kept in the dark for 2 days at 4° C., then 5 days at 22° C. in the dark, 2 days in the light, 3 days in the dark and then additional 4 days in the light to complete 2 weeks when roots were counted using a stereoscope. Sensitivity to auxin and/or auxin analogs was determined by following root elongation on vertical plates. The 4-day-old seedlings were transferred to MS plates containing 0.05 or 0.5 μM IAA and the root length was measured after 5 days, including the number of LRs in each root and calculation of the LR density. Each treatment experiment included 10-15 plants and was repeated 3 times.
A common technique for evaluating auxin activity is by determining the ability of a compound to inhibit root elongation [Zolman et al., Genetics 2000, 156:1323-1337]. In order to use this assay for comparing auxin activities of different conjugates, the minimum concentration of free 4-CPA that is active in the root elongation inhibition assay was determined. Four days old seedlings were placed in vertical plates containing increasing concentrations of 4-CPA. The root lengths were marked daily during 5 days.
Based on the above results, the effect of conjugates of 4-CPA (Compounds 1o-1t) on root elongation after 5 days was determined at concentrations of 50 nM.

[3] = Table 1, 50 μM, water control 29.6
[4] = Table 1, 10 μM, water control 29.6

Compound: COC(=O)[C@@H](CC(C)C)NC(=O)COc1ccc(Cl)cc1 [4-CPA-D-Leu-methyl ester]
- rooting percentage of eucalyptus cuttings [1]: 5%

Compound: COC(=O)[C@H]1CCCN1C(=O)COc1ccc(Cl)cc1 [4-CPA-D-Pro-methyl ester]
- rooting percentage of eucalyptus cuttings [1]: 10%

Compound: Cc1ccc(NC(=O)COc2ccc(Cl)cc2)nc1 [Compound 1c]
- rooting of mung bean cuttings (number of roots per cutting) (mung bean cuttings; [3]): 0

Compound: COC(=O)c1ccnc(NC(=O)COc2ccc(Cl)cc2)c1 [Compound 1d]
- rooting of mung bean cuttings (number of roots per cutting) (mung bean cuttings; [4]): 0
- rooting of mung bean cuttings (number of roots per cutting) (mung bean cuttings; [3]): 0

Compound: Cc1ccccc1NC(=O)COc1ccc(Cl)cc1 [Compound 1e]
- rooting of mung bean cuttings (number of roots per cutting) (mung bean cuttings; [3]): 0

Compound: CCC(C)NC(=O)COc1ccc(Cl)cc1 (stereo not drawn) [Compound 1i]
- rooting compared with Compound 1a (4-CPA-ethanolamine), in words [1]: not more effective at inducing rooting
- rooting of mung bean cuttings (number of roots per cutting) (mung bean cuttings; Table 2, 2 μM): 23
- rooting of mung bean cuttings (number of roots per cutting) (mung bean cuttings; Table 2, 10 μM): 25
- rooting of mung bean cuttings (number of roots per cutting) (mung bean cuttings; Table 2, 50 μM): 0

Compound: CCCCNC(=O)COc1ccc(Cl)cc1 [Compound 1j]
- rooting compared with Compound 1a (4-CPA-ethanolamine), in words [1]: not more effective at inducing rooting
- rooting of mung bean cuttings (number of roots per cutting) (mung bean cuttings; Table 2, 2 μM): 22
- rooting of mung bean cuttings (number of roots per cutting) (mung bean cuttings; Table 2, 10 μM): 0
- rooting of mung bean cuttings (number of roots per cutting) (mung bean cuttings; Table 2, 50 μM): 0

Compound: O=C(COc1ccc(Cl)cc1)N1CCCCC1 [Compound 1k]
- rooting compared with Compound 1a (4-CPA-ethanolamine), in words [1]: not more effective at inducing rooting
- rooting of mung bean cuttings (number of roots per cutting) (mung bean cuttings; Table 2, 2 μM): 25
- rooting of mung bean cuttings (number of roots per cutting) (mung bean cuttings; Table 2, 10 μM): 34
- rooting of mung bean cuttings (number of roots per cutting) (mung bean cuttings; Table 2, 50 μM): 0

Compound: O=C(COc1ccc(Cl)cc1)N1CCOCC1 [Compound 1l, 4-CPA-morpholine]
- roots per cutting of green avocado branches compared with etiolated branches treated with IBA, in words [2]: considerably more roots per cutting
- rooting success rate of green avocado branches, in words [2]: considerably enhanced the rooting success rate
- rooting compared with Compound 1a (4-CPA-ethanolamine), in words [1]: not more effective at inducing rooting
- rooting of mung bean cuttings (number of roots per cutting) (mung bean cuttings; Table 2, 2 μM): 23
- rooting of mung bean cuttings (number of roots per cutting) (mung bean cuttings; Table 2, 10 μM): 0
- rooting of mung bean cuttings (number of roots per cutting) (mung bean cuttings; Table 2, 50 μM): 0

Compound: O=C(COc1ccc(Cl)cc1)N(CCO)CCO [Compound 1m]
- rooting compared with Compound 1a (4-CPA-ethanolamine), in words [1]: not more effective at inducing rooting

Compound: CN(CCO)C(=O)COc1ccc(Cl)cc1 [Compound 1n]
- rooting compared with Compound 1a (4-CPA-ethanolamine), in words [1]: not more effective at inducing rooting
- rooting of mung bean cuttings (number of roots per cutting) (mung bean cuttings; Table 2, 2 μM): 16
- rooting of mung bean cuttings (number of roots per cutting) (mung bean cuttings; Table 2, 10 μM): 24
- rooting of mung bean cuttings (number of roots per cutting) (mung bean cuttings; Table 2, 50 μM): 35
- effect on AR formation in mung bean cuttings, in words (mung bean cuttings): moderate rooting activity at 50 μM

Compound: COC(=O)C[C@@H](NC(=O)COc1ccc(Cl)cc1)C(=O)OC [Compound 1q, 4-CPA-D-Asp-methyl diester]
- effect on root elongation relative to control, in words (Arabidopsis seedlings): did not affect root elongation
- rooting of mung bean cuttings (number of roots per cutting) (mung bean cuttings; Table 2, 2 μM): 67
- rooting of mung bean cuttings (number of roots per cutting) (mung bean cuttings; Table 2, 10 μM): 0
- rooting of mung bean cuttings (number of roots per cutting) (mung bean cuttings; Table 2, 50 μM): 0

Compound: CC(Oc1ccc(Cl)cc1Cl)C(=O)O (stereo not drawn) [Compound 2-DP, 2-(2,4-dichlorophenoxy)propionic acid, reference compound]
- effect on AR formation in mung bean cuttings, in words (mung bean cuttings): positively correlated to dose

Compound: Cc1cc(Cl)ccc1OCC(=O)NCCO [Compound 2a]
- rooting of mung bean cuttings (number of roots per cutting) (mung bean cuttings; [4]): 34.7
- rooting of mung bean cuttings (number of roots per cutting) (mung bean cuttings; [3]): 72.1

Compound: COC(=O)CCNC(=O)COc1ccc(Cl)cc1C [Compound 2b]
- rooting of mung bean cuttings (number of roots per cutting) (mung bean cuttings; [4]): 94.8
- rooting of mung bean cuttings (number of roots per cutting) (mung bean cuttings; [3]): 63.2

Compound: Cc1ccc(NC(=O)COc2ccc(Cl)cc2C)nc1 [Compound 2c]
- rooting of mung bean cuttings (number of roots per cutting) (mung bean cuttings; [4]): 0
- rooting of mung bean cuttings (number of roots per cutting) (mung bean cuttings; [3]): 0

Compound: COC(=O)c1ccnc(NC(=O)COc2ccc(Cl)cc2C)c1 [Compound 2d]
- rooting of mung bean cuttings (number of roots per cutting) (mung bean cuttings; [4]): 64.3
- rooting of mung bean cuttings (number of roots per cutting) (mung bean cuttings; [3]): 0

Compound: Cc1ccccc1NC(=O)COc1ccc(Cl)cc1C [Compound 2e]
- rooting of mung bean cuttings (number of roots per cutting) (mung bean cuttings; [4]): 23.6
- rooting of mung bean cuttings (number of roots per cutting) (mung bean cuttings; [3]): 0

Compound: Cc1ccc(NC(=O)COc2ccc(Cl)cc2C)cc1 [Compound 2f]
- rooting of mung bean cuttings (number of roots per cutting) (mung bean cuttings; [4]): 0
- rooting of mung bean cuttings (number of roots per cutting) (mung bean cuttings; [3]): 0

Compound: COC(=O)c1ccc(NC(=O)COc2ccc(Cl)cc2C)cc1 [Compound 2g]
- rooting of mung bean cuttings (number of roots per cutting) (mung bean cuttings; [4]): 0
- rooting of mung bean cuttings (number of roots per cutting) (mung bean cuttings; [3]): 0

Compound: COC(=O)COc1ccc(Cl)cc1C [Compound 2h, MCPA-methanol]
- roots per cutting of green avocado branches compared with etiolated branches treated with IBA, in words [2]: considerably more roots per cutting
- rooting success rate of green avocado branches, in words [2]: considerably enhanced the rooting success rate

Compound: CC(Oc1ccc(Cl)cc1Cl)C(=O)NCCO (stereo not drawn) [Compound 3a]
- rooting of mung bean cuttings (number of roots per cutting) (mung bean cuttings; [4]): 26.4
- rooting of mung bean cuttings (number of roots per cutting) (mung bean cuttings; [3]): 24.1

Compound: COC(=O)c1ccnc(NC(=O)C(C)Oc2ccc(Cl)cc2Cl)c1 (stereo not drawn) [Compound 3d]
- rooting of mung bean cuttings (number of roots per cutting) (mung bean cuttings; [4]): 41.6
- rooting of mung bean cuttings (number of roots per cutting) (mung bean cuttings; [3]): 85.8

Compound: Cc1ccccc1NC(=O)C(C)Oc1ccc(Cl)cc1Cl (stereo not drawn) [Compound 3e]
- rooting of mung bean cuttings (number of roots per cutting) (mung bean cuttings; [4]): 37.3
- rooting of mung bean cuttings (number of roots per cutting) (mung bean cuttings; [3]): 41.7

Compound: COC(=O)c1ccc(NC(=O)C(C)Oc2ccc(Cl)cc2Cl)cc1 (stereo not drawn) [Compound 3g, 2-DP-methyl-4-aminobenzoate]
- roots per cutting of green avocado branches compared with etiolated branches treated with IBA, in words [2]: considerably more roots per cutting
- rooting success rate of green avocado branches, in words [2]: considerably enhanced the rooting success rate
- rooting of mung bean cuttings (number of roots per cutting) (mung bean cuttings; [4]): 46.2
- rooting of mung bean cuttings (number of roots per cutting) (mung bean cuttings; [3]): 46.4

Compound: COC(=O)CCNC(=O)Cc1cccc2ccccc12 [Compound 4b, NAA-β-alanine methyl ester]
- roots per cutting of green avocado branches compared with etiolated branches treated with IBA, in words [2]: considerably more roots per cutting
- rooting success rate of green avocado branches, in words [2]: considerably enhanced the rooting success rate
